The record followed here is publication PMC3511402, “Structural and Biochemical Studies on ATP Binding and Hydrolysis by the Escherichia coli RNA Chaperone Hfq” (PLoS ONE, 2012).

In experiment [1] the target is T1, full length E. coli Hfq (Escherichia coli, UniProt P0A6X3).
T1 construct: full length, no added His tag (native histidines); plasmid pUH5 in E. coli AM111F' (printed for the ATPase preparations); hexamer
Description: EMSA competition with […]'-labelled poly(A)[…] RNA. It counts as binding. The settings on record: 5 nM poly(A)27, 40 nM Hfq hexamer, pH 7.5, 2 mM MgOAc, room temperature; distal site competition. (In general: In EMSA bound probe runs differently from free probe, usually more slowly.)

The target of experiment [2] is T2, Hfq65 (Escherichia coli, UniProt P0A6X3).
T2 construct: gene hfq; C-terminally truncated, aa 1-65; plasmid pUHfq65 expressed in E. coli hfq- strain AM111F'; untagged; hexamer
Nature of the experiment: X-ray crystal structure, […] Å. It counts as binding. The settings on record: distal-face R-sites, four of six sites occupied; ATP 1:1 per subunit; Hepes pH ~7.5.

Molecules are shown by their SMILES.

T1 sequence (P0A6X3 2-102): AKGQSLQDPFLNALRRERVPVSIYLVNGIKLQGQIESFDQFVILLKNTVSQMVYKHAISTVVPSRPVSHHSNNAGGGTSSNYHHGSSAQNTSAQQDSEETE
T2 sequence (P0A6X3 1-65): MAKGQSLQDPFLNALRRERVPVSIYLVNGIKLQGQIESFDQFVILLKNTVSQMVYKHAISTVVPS

In the case of `Nc1ncnc2c1ncn2[C@@H]1O[C@H](COP(=O)(O)OP(=O)(O)OP(=O)(O)O)[C@@H](O)[C@H]1O` [ATP], the “% RNA released at 10 mM ATP” value in experiment [1] is given as ~ 50%. Moreover, the “X-ray crystal structure, 2.15 Å” value in experiment [2] is reported as “electron density corresponding to the ATP molecules was observed in four out of six R-sites”.
